According to publication PMC9259545, “Impact of poly-arginine peptides R18D and R18 on alteplase and tenecteplase thrombolysis in vitro, and neuroprotective stability to proteolysis” (Journal of Thrombosis and Thrombolysis, 2022):
Non-standard residues stand in square brackets, D forms with d. Residues, ends and D or L forms follow the SMILES beside them.

Columns and labels:
TNK = target: T1, TNK (Homo sapiens, UniProt P00750, H332A/K331A/N152Q/R333A/R334A/T138N); assay: Halo clot thrombolysis assay, TNK thrombolysis of whole blood clots; format: biochemical; conditions: TNK 5 nM, 27.5% human plasma
T1 construct: purchased Boehringer Ingelheim 50 mg vial
Description: (§1) We utilised a high throughput 96-well plate thrombolysis assay (“halo clot assay”) based on the procedure developed by Bonnard et al.. To reduce assay components the halo thrombus formation procedure was modified by replacing the original thrombotic mixture consisting of recombinant tissue factor and synthetic phospholipids reconstituted in 30 mM calcium, with thrombin, and reducing the pro-thrombotic volume (i.e., thrombin) from 5 to 3 µL and blood volume from 25 to 12 µL. Another modification to simplify clot formation consisted of adding the thrombin (3 µL; 500 nM in saline) to one side of the well and 12 µL of blood to the opposite side of well, before using a heat stretched Pasteur pipette with sealed end to mix the two liquids together using 4 to 5 circular motions around the edge of the well (halo clot). The original methodology involved adding the 5 μL of the clotting mixture to the edge of the well, and then using a micropipette to slowly release the 25 μL of blood to the edge of the well while at the same time maintaining a circular motion. Plates were incubated in a humidified 37 °C incubator for 1 h before use in the thrombolysis assay.
(§2) The thrombolysis assay involved adding 30 µL of Tris buffer (50 mM Tris–HCl, 100 mM NaCl, pH 7.4) with or without peptide followed by 55 µL Tris buffer containing tPA or TNK (5 nM final concentration) and 50% human plasma (final plasma concentration during thrombolysis 27.5%). The final concentration of peptide during thrombolysis ranged from 0.25 to 16 µM (note: an intravenous dose of R18D at 350 nmol/kg, which is likely to be neuroprotective achieves a Cmax of 0.7–0.9 µM in healthy male and female rats; unpublished observation). […] Following the addition of tPA or TNK into the wells, clot lysis was monitored over a 1-h period at 37 °C using a plate reader (Cytation5, BioTek, USA) by measuring absorbance at 510 nm every 1 min immediately after orbital shaking (205 rpm for 5 s). Controls consisted of wells with no thrombin (100% clot lysis; L100%) and wells with no tPA or TNK (0% clot lysis; L0%). At the 1-h time point, the percentage of thrombolysis (%T) in tPA or TNK treated samples (LTX) was calculated by transforming absorbance values based on the formula: % T = (LTX) − (L0%)/(L100%) − (L0%) × 100. In addition, during the 1-h period of clot lysis lag time and maximal activity (also known as maximum velocity or Vmax) of the thrombolysis reaction were calculated. The lag time is defined as the time interval between the first absorbance reading (time = 0) and the line of maximum slope of the thrombolysis reaction. The maximal activity is calculated from the maximum slope over the time course of the assay and reflects the capacity of an enzyme to catalyse a reaction (i.e., thrombolysis), with higher values representing higher catalytic activity (i.e., tPA/TNK induced plasmin thrombolysis).
For each thrombolysis assay, replicates for control wells (L0% and L100%) and tPA or TNK only treated wells consisted of n = 4–8. Replicates for tPA or TNK and peptide treated wells consisted of n = 4. For data analysis and graphical representations of the results, data from three independent thrombolytic assays were pooled. Studies consisted of R18D, R18 and NA-1 examined at the 0.5, 1, 2, 4, 8 or 16 µM concentrations performed concurrently on the same 96-well plate, in respective order. In addition, since R18D is known to be resistant to plasmin degradation and appeared to have the most impact on tPA or TNK thrombolysis, a separate set of three independent assays were performed for this peptide alone at concentrations of 0.25, 0.5, 1, 2, 4, 8 or 16 µM. Furthermore, the second dose study with R18D provided the opportunity to include a lower concentration (0.25 µM) of the peptide and to provide comparative data when only one peptide was examined in the thrombolysis assay per 96-well plate as opposed to examining the three peptides concurrently on the same plate. […]

tPA or TNK = format: biochemical, human; conditions: range over peptide concentrations 0.25-16 µM and both thrombolytics; 1-h assay
Description: as §1, §2
For each thrombolysis assay, replicates for control wells (L0% and L100%) and tPA or TNK only treated wells consisted of n = 4–8. Replicates for tPA or TNK and peptide treated wells consisted of n = 4. For data analysis and graphical representations of the results, data from three independent thrombolytic assays were pooled. Studies consisted of R18D, R18 and NA-1 examined at the 0.5, 1, 2, 4, 8 or 16 µM concentrations performed concurrently on the same 96-well plate, in respective order. […]

[1] = separate dose study, R18D alone, 0.25-16 µM

T1 sequence (P00750 36-562 T138N/N152Q/K331A/H332A/R333A/R334A): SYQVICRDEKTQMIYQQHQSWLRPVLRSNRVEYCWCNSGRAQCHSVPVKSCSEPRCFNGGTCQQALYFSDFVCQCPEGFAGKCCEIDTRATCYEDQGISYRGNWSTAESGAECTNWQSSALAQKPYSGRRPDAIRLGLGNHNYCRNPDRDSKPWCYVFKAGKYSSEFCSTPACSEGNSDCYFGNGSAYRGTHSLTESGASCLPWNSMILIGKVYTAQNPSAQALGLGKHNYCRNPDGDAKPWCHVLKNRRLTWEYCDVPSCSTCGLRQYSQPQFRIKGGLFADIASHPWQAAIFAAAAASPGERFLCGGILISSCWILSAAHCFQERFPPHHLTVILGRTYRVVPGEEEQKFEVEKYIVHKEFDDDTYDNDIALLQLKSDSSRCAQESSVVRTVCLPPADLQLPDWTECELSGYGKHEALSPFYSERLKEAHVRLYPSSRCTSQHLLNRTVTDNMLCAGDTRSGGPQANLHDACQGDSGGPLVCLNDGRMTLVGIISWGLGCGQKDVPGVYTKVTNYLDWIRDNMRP

With `N=C(N)NCCC[C@@H](N)C(=O)N[C@H](CCCNC(=N)N)C(=O)N[C@H](CCCNC(=N)N)C(=O)N[C@H](CCCNC(=N)N)C(=O)N[C@H](CCCNC(=N)N)C(=O)N[C@H](CCCNC(=N)N)C(=O)N[C@H](CCCNC(=N)N)C(=O)N[C@H](CCCNC(=N)N)C(=O)N[C@H](CCCNC(=N)N)C(=O)N[C@H](CCCNC(=N)N)C(=O)N[C@H](CCCNC(=N)N)C(=O)N[C@H](CCCNC(=N)N)C(=O)N[C@H](CCCNC(=N)N)C(=O)N[C@H](CCCNC(=N)N)C(=O)N[C@H](CCCNC(=N)N)C(=O)N[C@H](CCCNC(=N)N)C(=O)N[C@H](CCCNC(=N)N)C(=O)N[C@H](CCCNC(=N)N)C(=O)O` [R18D] (H-[dR][dR][dR][dR][dR][dR][dR][dR][dR][dR][dR][dR][dR][dR][dR][dR][dR][dR]-OH) the “Effect on TNK thrombolysis maximal activity vs TNK control” value (TNK; concurrent study, 0.5-16 µM peptide) was “did not significantly impact TNK thrombolysis maximal activity”, the “Increase in TNK lag time” value (TNK; peptide 4 µM, concurrent study, 37 °C) was 6.64 min and the “Decrease in TNK thrombolysis” value (TNK; peptide 4 µM, concurrent study, 37 °C, 1 h, p = 0.022) was 9.35%. The “Increase in TNK lag time” value (TNK; peptide 8 µM, concurrent study, 37 °C) was 9.9 min, the “Decrease in TNK thrombolysis” value (TNK; peptide 8 µM, concurrent study, 37 °C, 1 h, p = 0.044) was 8.71% and the “Increase in TNK lag time” value (TNK; peptide 16 µM, concurrent study, 37 °C) was 8.76 min. For the same compound, the “Effect on TNK lag time vs TNK control” value (TNK; [1]) was “did not impact TNK lag time at any concentration”, the “Effect on TNK thrombolysis maximal activity vs TNK control” value (TNK; [1]) was “did not significantly impact TNK thrombolysis maximal activity at any concentration” and the “Effect on percentage TNK thrombolysis at 1 h vs TNK control” value (TNK; separate dose study, R18D alone, 0.25-16 µM, 37 °C, 1 h) was “did not inhibit TNK thrombolysis”. For the same compound, the “Increase in lag time (time to the commencement of thrombolysis)” value (tPA or TNK) was 0 to 9.9 min.
